Source: patent US20210070748A1, “INHIBITORS OF BRUTONS TYROSINE KINASE” (Pharmacyclics LLC, priority 2015, published 2021)

What was measured:
Type in all cases: biochemical
EGFR = EGFR (Homo sapiens, UniProt P00533); assay: Inhibition of a panel of kinases, in vitro HotSpot kinase assay: EGFR; details: D-compounds panel data; 1 μM ATP
Description: The degree of inhibition of a panel of kinases is determined using the in vitro HotSpot kinase assay (purified enzymes, ^33P-ATP, an appropriate substrate and 1 μM ATP).

LCK = LCK (Homo sapiens, UniProt P06239); assay: Inhibition of a panel of kinases, in vitro HotSpot kinase assay: LCK; details: D-compounds panel data; 1 μM ATP; read-out: IC50 LCK
JAK3 = target: T1, JAK3 (Homo sapiens, UniProt P52333); assay: Inhibition of a panel of kinases, in vitro HotSpot kinase assay: JAK3; details: D-compounds panel data; 1 μM ATP; read-out: IC50 JAK3
T1 sequence (P52333 1-1124): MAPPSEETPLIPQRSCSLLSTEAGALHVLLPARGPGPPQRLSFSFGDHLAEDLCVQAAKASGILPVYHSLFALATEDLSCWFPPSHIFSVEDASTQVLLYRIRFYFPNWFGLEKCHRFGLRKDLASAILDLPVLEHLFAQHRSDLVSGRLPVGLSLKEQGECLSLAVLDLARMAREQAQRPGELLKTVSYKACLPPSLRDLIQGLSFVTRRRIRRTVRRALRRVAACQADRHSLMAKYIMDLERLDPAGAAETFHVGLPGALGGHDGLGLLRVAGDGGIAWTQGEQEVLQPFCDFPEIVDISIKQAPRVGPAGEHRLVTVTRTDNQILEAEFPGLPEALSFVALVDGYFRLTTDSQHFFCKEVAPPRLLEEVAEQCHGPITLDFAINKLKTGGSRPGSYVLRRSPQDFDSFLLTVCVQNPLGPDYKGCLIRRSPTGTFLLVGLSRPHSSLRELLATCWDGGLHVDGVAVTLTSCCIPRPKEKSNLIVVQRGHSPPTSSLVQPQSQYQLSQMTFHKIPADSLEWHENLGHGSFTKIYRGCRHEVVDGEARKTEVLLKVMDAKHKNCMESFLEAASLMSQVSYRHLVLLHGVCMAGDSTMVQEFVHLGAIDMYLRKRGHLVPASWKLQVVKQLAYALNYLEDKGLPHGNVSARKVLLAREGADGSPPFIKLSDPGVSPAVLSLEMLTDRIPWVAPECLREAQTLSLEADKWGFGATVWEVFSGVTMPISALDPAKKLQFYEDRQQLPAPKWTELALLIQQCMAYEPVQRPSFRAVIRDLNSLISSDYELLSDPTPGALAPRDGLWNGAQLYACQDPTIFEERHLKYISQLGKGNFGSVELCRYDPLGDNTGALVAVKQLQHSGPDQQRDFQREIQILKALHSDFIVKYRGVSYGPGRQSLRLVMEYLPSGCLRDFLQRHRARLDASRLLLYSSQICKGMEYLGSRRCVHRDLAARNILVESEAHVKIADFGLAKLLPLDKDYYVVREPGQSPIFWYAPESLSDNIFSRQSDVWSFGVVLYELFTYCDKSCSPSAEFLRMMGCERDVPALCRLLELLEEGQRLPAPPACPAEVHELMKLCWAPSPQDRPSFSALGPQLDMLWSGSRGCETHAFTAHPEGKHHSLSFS

EGFR, sequence (P00533 25-1210): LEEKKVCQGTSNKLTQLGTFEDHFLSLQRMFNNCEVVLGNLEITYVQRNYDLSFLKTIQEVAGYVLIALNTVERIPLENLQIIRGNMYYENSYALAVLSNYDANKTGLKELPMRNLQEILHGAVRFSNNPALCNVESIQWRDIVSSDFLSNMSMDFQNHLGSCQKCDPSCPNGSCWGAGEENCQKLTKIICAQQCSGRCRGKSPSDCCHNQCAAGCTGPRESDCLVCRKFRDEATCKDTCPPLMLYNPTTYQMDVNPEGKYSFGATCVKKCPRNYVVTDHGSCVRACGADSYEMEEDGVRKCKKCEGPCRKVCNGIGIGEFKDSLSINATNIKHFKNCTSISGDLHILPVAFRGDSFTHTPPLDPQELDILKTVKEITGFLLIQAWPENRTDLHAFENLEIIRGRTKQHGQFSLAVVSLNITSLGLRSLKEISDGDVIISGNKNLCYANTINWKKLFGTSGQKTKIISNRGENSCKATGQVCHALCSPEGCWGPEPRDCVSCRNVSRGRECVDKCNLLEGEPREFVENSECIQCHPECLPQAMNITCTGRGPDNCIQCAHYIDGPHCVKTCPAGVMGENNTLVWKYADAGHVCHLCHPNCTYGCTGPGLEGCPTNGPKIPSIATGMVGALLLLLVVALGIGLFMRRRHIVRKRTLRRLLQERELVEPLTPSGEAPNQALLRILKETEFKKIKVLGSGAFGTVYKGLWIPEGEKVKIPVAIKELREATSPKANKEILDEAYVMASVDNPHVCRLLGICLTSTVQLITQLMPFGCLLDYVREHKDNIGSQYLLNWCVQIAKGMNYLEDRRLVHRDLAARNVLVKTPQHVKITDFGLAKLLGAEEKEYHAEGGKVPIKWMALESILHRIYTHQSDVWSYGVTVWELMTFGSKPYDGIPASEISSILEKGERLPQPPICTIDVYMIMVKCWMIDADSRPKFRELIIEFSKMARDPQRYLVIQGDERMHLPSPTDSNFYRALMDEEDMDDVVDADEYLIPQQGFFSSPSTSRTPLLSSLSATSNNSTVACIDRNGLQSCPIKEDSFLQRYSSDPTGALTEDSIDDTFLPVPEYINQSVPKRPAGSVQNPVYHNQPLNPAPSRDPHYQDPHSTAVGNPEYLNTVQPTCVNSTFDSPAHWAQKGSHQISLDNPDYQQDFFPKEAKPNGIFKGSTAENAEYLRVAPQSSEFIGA
LCK, sequence (P06239 whole entry): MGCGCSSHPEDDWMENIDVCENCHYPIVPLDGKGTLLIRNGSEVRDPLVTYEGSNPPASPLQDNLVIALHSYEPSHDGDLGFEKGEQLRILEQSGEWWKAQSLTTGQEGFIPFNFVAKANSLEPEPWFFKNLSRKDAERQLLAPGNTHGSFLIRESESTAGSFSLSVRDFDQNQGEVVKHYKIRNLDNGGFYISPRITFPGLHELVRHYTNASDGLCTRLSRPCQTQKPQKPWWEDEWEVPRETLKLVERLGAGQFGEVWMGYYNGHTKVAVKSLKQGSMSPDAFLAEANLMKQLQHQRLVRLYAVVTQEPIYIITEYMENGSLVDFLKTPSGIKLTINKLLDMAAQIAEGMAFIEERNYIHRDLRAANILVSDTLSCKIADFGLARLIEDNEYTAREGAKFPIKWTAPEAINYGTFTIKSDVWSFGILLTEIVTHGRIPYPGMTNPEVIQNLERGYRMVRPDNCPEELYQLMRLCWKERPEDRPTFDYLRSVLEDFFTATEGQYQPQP

Structure (SMILES) | IC50 (EGFR) [nM] | IC50 (LCK) [nM] | IC50 (JAK3) [nM]
CN(C)C(=O)N[C@H]1CCCN(c2cnc(C(N)=O)c(Nc3ccc(C4(C)CCN(C5CCCC5)CC4)cc3)n2)[C@@H]1CO [Example D-61, 3-{[4-(1-cyclopentyl-4-methylpiperidin-4-yl)phenyl]amino}-5-[(2S,3S)-3-[(dimethylcarbamoyl)amino]-2-(hydroxymethyl)piperidin-1-yl]pyrazine-2-carboxamide] | > 10000 | 1000 to 10000 | > 10000
C[C@@H]1[C@H](NC(=O)c2ccc(C3CC3)cc2F)CCCN1c1cnc(C(N)=O)c(Nc2nc3c(s2)CN(C)CC3)n1 [Example D-62, 5-[(2R,3R)-3-(4-cyclopropyl-2-fluorobenzamido)-2-methylpiperidin-1-yl]-3-({5-methyl-4H,5H,6H,7H-[1,3]thiazolo[5,4-c]pyridin-2-yl}amino)pyrazine-2-carboxamide] | > 10000 | > 10000 | > 10000
Cc1csc(Nc2nc(N3CCC[C@@H](NC(=O)c4ccc(C5CC5)cc4F)[C@H]3C)cnc2C(N)=O)n1 [Example D-63, 5-[(2R,3R)-3-(4-cyclopropyl-2-fluorobenzamido)-2-methylpiperidin-1-yl]-3-[(4-methyl-1,3-thiazol-2-yl)amino]pyrazine-2-carboxamide] | > 10000 | > 10000 | > 10000
C[C@@H]1[C@H](NC(=O)c2ccc(C3CC3)cc2F)CCCN1c1cnc(C(N)=O)c(Nc2ccc(C3(C)CCN(C4CCCC4)CC3)cc2)n1 [Example D-66, 3-{[4-(1-cyclopentyl-4-methylpiperidin-4-yl)phenyl]amino}-5-[(2R,3R)-3-(4-cyclopropyl-2-fluorobenzamido)-2-methylpiperidin-1-yl]pyrazine-2-carboxamide] | 10 to 100 | < 10 | 100 to 1000
Cc1cc(Nc2nc(N3CCC[C@@H](NC(=O)N(C)C)[C@H]3CO)cnc2C(N)=O)sn1 [Example D-67, 5-[(2S,3R)-3-[(dimethylcarbamoyl)amino]-2-(hydroxymethyl)piperidin-1-yl]-3-[(3-methyl-1,2-thiazol-5-yl)amino]pyrazine-2-carboxamide] | 100 to 1000 | 100 to 1000 | 1000 to 10000
Cc1cc(Nc2nc(N3CCC[C@H](NC(=O)N(C)C)[C@@H]3CO)cnc2C(N)=O)sn1 [Example D-68, 5-[(2R,3S)-3-[(dimethylcarbamoyl)amino]-2-(hydroxymethyl)piperidin-1-yl]-3-[(3-methyl-1,2-thiazol-5-yl)amino]pyrazine-2-carboxamide] | > 10000 | > 10000 | 1000 to 10000
CN1CCN(C(=O)c2ccc(Nc3nc(N[C@H]4CC[C@H](NC(=O)N(C)C)CC4)cnc3C(N)=O)cc2)CC1 [Example D-69, 3-{[4-(4-methylpiperazine-1-carbonyl)phenyl]amino}-5-{[(1 r,4r)-4-[(dimethylcarbamoyl)amino]cyclohexyl]amino}pyrazine-2-carboxamide] | 100 to 1000 | 10 to 100 | 100 to 1000
CN1CCN(C(=O)c2ccc(Nc3nc(N[C@H]4CC[C@H](NC(=O)c5ccc(C6CC6)cc5F)CC4)cnc3C(N)=O)cc2)CC1 [Example D-70, 3-{[4-(4-methylpiperazine-1-carbonyl)phenyl]amino}-5-{[(1 r,4r)-4-(4-cyclopropyl-2-fluorobenzamido)cyclohexyl]amino}pyrazine-2-carboxamide] | 100 to 1000 | 100 to 1000 | 100 to 1000
CN1CCN(C(=O)c2ccc(Nc3nc(N[C@H]4CC[C@@H](NC(=O)c5ccc(C6CC6)cc5F)CC4)cnc3C(N)=O)cc2)CC1 [Example D-71, 3-{[4-(4-methylpiperazine-1-carbonyl)phenyl]amino}-5-{[(1 s,4s)-4-(4-cyclopropyl-2-fluorobenzamido)cyclohexyl]amino}pyrazine-2-carboxamide] | 100 to 1000 | 10 to 100 | 10 to 100
CN1CCN(C(=O)c2ccc(Nc3nc(N[C@H]4CC[C@@H](NC(=O)N(C)C)CC4)cnc3C(N)=O)cc2)CC1 [Example D-72, 3-{[4-(4-methylpiperazine-1-carbonyl)phenyl]amino}-5-{[(1s,4s)-4-[(dimethylcarbamoyl)amino]cyclohexyl]amino}pyrazine-2-carboxamide] | 1000 to 10000 | 10 to 100 | 1000 to 10000

The next lines start with the values.

IC50 (EGFR) [nM] | IC50 (LCK) [nM] | IC50 (JAK3) [nM] | Structure (SMILES)
1000 to 10000 | 1000 to 10000 | > 10000 | C[C@@H]1[C@H](NC(=O)c2ccc(C3CC3)cc2F)CCCN1c1cnc(C(N)=O)c(Nc2ccc(N3CCOCC3)cc2)n1 [Example D-73, 5-[(2R,3R)-3-(4-cyclopropyl-2-fluorobenzamido)-2-methylpiperidin-1-yl]-3-{[4-(morpholin-4-yl)phenyl]amino}pyrazine-2-carboxamide]
100 to 1000 | 100 to 1000 | 100 to 1000 | Cc1cc(Nc2nc(N3C[C@H](NC(=O)N(C)C)CC[C@@H]3C)cnc2C(N)=O)sn1 [Example D-74, 5-[(2S,5R)-5-[(dimethylcarbamoyl)amino]-2-methylpiperidin-1-yl]-3-[(3-methyl-1,2-thiazol-5-yl)amino]pyrazine-2-carboxamide]
100 to 1000 | 100 to 1000 | 100 to 1000 | Cc1cc(Nc2nc(N3C[C@@H](NC(=O)N(C)C)CC[C@H]3C)cnc2C(N)=O)sn1 [Example D-75, 5-[(2R,5S)-5-[(dimethylcarbamoyl)amino]-2-methylpiperidin-1-yl]-3-[(3-methyl-1,2-thiazol-5-yl)amino]pyrazine-2-carboxamide]
1000 to 10000 | > 10000 | 1000 to 10000 | Cc1cc(Nc2nc(N3C[C@@H](NC(=O)N(C)C)CC[C@@H]3C)cnc2C(N)=O)sn1 [Example D-76, 5-[(2S,5S)-5-[(dimethylcarbamoyl)amino]-2-methylpiperidin-1-yl]-3-[(3-methyl-1,2-thiazol-5-yl)amino]pyrazine-2-carboxamide]
1000 to 10000 | 1000 to 10000 | 1000 to 10000 | Cc1cc(Nc2nc(N3C[C@H](NC(=O)N(C)C)CC[C@H]3C)cnc2C(N)=O)sn1 [Example D-77, 5-[(2R,5R)-5-[(dimethylcarbamoyl)amino]-2-methylpiperidin-1-yl]-3-[(3-methyl-1,2-thiazol-5-yl)amino]pyrazine-2-carboxamide]
100 to 1000 | 100 to 1000 | 1000 to 10000 | Cc1cc(Nc2nc(N3C[C@@H](NC(=O)c4ccc(C5CC5)cc4F)CC[C@@H]3C)cnc2C(N)=O)sn1 [Example D-78, 5-[(2S,5S)-5-(4-cyclopropyl-2-fluorobenzamido)-2-methylpiperidin-1-yl]-3-[(3-methyl-1,2-thiazol-5-yl)amino]pyrazine-2-carboxamide]
1000 to 10000 | 1000 to 10000 | 1000 to 10000 | Cc1cc(Nc2nc(N3C[C@H](NC(=O)c4ccc(C5CC5)cc4F)CC[C@H]3C)cnc2C(N)=O)sn1 [Example D-79, 5-[(2R,5R)-5-(4-cyclopropyl-2-fluorobenzamido)-2-methylpiperidin-1-yl]-3-[(3-methyl-1,2-thiazol-5-yl)amino]pyrazine-2-carboxamide]
100 to 1000 | 100 to 1000 | 1000 to 10000 | Cc1cc(Nc2nc(N3C[C@@H](NC(=O)c4ccc(C5CC5)cc4F)CC[C@H]3C)cnc2C(N)=O)sn1 [Example D-80, 5-[(2R,5S)-5-(4-cyclopropyl-2-fluorobenzamido)-2-methylpiperidin-1-yl]-3-[(3-methyl-1,2-thiazol-5-yl)amino]pyrazine-2-carboxamide]
100 to 1000 | 10 to 100 | 1000 to 10000 | C[C@@H]1[C@H](NC(=O)c2ccc(C3CC3)cc2)CCCN1c1cnc(C(N)=O)c(Nc2ccc(N3CCN(C)CC3)cc2)n1 [Example D-81]
100 to 1000 | 10 to 100 | 1000 to 10000 | C[C@@H]1[C@H](NC(=O)c2ccc(C3CC3)cc2F)CCCN1c1cnc(C(N)=O)c(Nc2ccc(N3CCN(C)CC3)c(F)c2)n1 [Example D-82, 5-[(2R,3R)-3-(4-cyclopropyl-2-fluorobenzamido)-2-methylpiperidin-1-yl]-3-{[3-fluoro-4-(4-methylpiperazin-1-yl)phenyl]amino}pyrazine-2-carboxamide]
